Read-outs that look alike come from different tables or passages of the source.
Tests used:
[1] = test system: Xanthomonas campestris; details: for Minimum inhibitory concentration, Average: average of triplicates
Procedure: (§1) Antimicrobial activity was tested against three categories of human and plant pathogenic microorganisms: Gram-positive (Bacillus subtilis, Bacillus cereus, Staphylococcus aureus), Gram-negative (Escherichia coli, Pseudomonas aeruginosa, Erwinia carotovora, Pseudomonas syringae pv. tabaci, Xanthomonas campestris pv. citri) and yeasts (Candida albicans, Cryptococcus neoformans), as previously reported. […] The full list of peptide MICs was published in an accompanying paper, and is available in the current publication as supplementary dataset (Supplementary dataset 01).
(§2) The determination of the minimum inhibitory concentration (MIC) of peptides was performed as described in “Encrypted Antimicrobial Peptides from Plant Proteins”[7]. Briefly, MICs were determined following protocols M7-A10 and M27-A3 from Clinical & Laboratory Standards Institute (CLSI) for bacteria and yeasts, respectively. Different concentrations of IAPs (0.5 to 256 μM) were tested against several microorganisms in a final volume of 100 µL. Three biological repetitions, with 2 technical replicates each, were performed for each test, on polystyrene flat-bottom 96 wells microplates. The minimum inhibitory concentration (MIC) was defined as the concentration at which no cells were detected when visualized by optical microscopy. Please refer to the literature[7] for further details of the microbiological assays.

[2] = test system: Bacillus cereus; details: Bacillus cereus; for Minimum inhibitory concentration, Average: average of triplicates
Procedure: as §1, §2

[3] = test system: Cryptococcus neoformans; details: Cryptococcus neoformans; for Minimum inhibitory concentration, Average: average of triplicates
Procedure: as §1, §2

[4] = test system: Staphylococcus aureus; details: Staphylococcus aureus; for Minimum inhibitory concentration, Average: average of triplicates
Procedure: as §1, §2

[5] = test system: Escherichia coli; details: Escherichia coli; for Minimum inhibitory concentration, Average: average of triplicates
Procedure: as §1, §2

[6] = test system: Erwinia carotovora; details: Erwinia carotovora; for Minimum inhibitory concentration, Average: average of triplicates
Procedure: as §1, §2

[7] = test system: Pseudomonas syringae pv. tabaci; details: Pseudomonas syringae pv. tabaci; for Minimum inhibitory concentration, Average: average of triplicates
Procedure: as §1, §2

[8] = test system: Pseudomonas aeruginosa; details: Pseudomonas aeruginosa; for Minimum inhibitory concentration, Average: average of triplicates
Procedure: as §1, §2

[9] = test system: Bacillus subtilis; details: Bacillus subtilis; for Minimum inhibitory concentration, Average: average of triplicates
Procedure: as §1, §2

[10] = test system: Candida albicans; details: Candida albicans; for Minimum inhibitory concentration, Average: average of triplicates
Procedure: as §1, §2

[11] = CLSI M27-A3, 0.5 to 256 μM tested, triplicate 1, also published in ref 7

| Sequence | Minimum inhibitory concentration ([1]; CLSI M7-A10, triplicate 1) [µM] | Minimum inhibitory concentration, Average [1] [µM] | Minimum inhibitory concentration ([1]; triplicate 2) [µM] | Minimum inhibitory concentration ([1]; triplicate 3) [µM] | Minimum inhibitory concentration ([2]; CLSI M7-A10, triplicate 1) [µM] | Minimum inhibitory concentration, Average [2] [µM] | Minimum inhibitory concentration ([2]; triplicate 2) [µM] | Minimum inhibitory concentration ([2]; triplicate 3) [µM] | Minimum inhibitory concentration ([3]; CLSI M27-A3, triplicate 1) [µM] | Minimum inhibitory concentration, Average [3] [µM] | Minimum inhibitory concentration ([3]; triplicate 2) [µM] | Minimum inhibitory concentration ([3]; triplicate 3) [µM] | Minimum inhibitory concentration ([4]; CLSI M7-A10, triplicate 1) [µM] | Minimum inhibitory concentration, Average [4] [µM] | Minimum inhibitory concentration ([4]; triplicate 2) [µM] | Minimum inhibitory concentration ([4]; triplicate 3) [µM] | Minimum inhibitory concentration ([5]; CLSI M7-A10, triplicate 1) [µM] | Minimum inhibitory concentration, Average [5] [µM] | Minimum inhibitory concentration ([5]; triplicate 2) [µM] | Minimum inhibitory concentration ([5]; triplicate 3) [µM] | also measured |
| --- | --- | --- | --- | --- | --- | --- | --- | --- | --- | --- | --- | --- | --- | --- | --- | --- | --- | --- | --- | --- | --- |
| GAKLAKKQVRALGKFFSF [At03] | 32 | 32.0 | 32 | 32 | 512 | 512.0 | 512 | 512 | 64 | 64.0 | 64 | 64 | 512 | 512.0 | 512 | 512 | 16 | 16.0 | 16 | 16 | Minimum inhibitory concentration ([6]; CLSI M7-A10, triplicate 1): 32 µM; Minimum inhibitory concentration, Average [6]: 32.0 µM; Minimum inhibitory concentration ([6]; triplicate 2): 32 µM; Minimum inhibitory concentration ([6]; triplicate 3): 32 µM; Minimum inhibitory concentration ([7]; CLSI M7-A10, triplicate 1): 8 µM; Minimum inhibitory concentration, Average [7]: 8.0 µM; Minimum inhibitory concentration ([7]; triplicate 2): 8 µM; Minimum inhibitory concentration ([7]; triplicate 3): 8 µM; Minimum inhibitory concentration ([8]; CLSI M7-A10, triplicate 1): 512 µM; Minimum inhibitory concentration, Average [8]: 512.0 µM; Minimum inhibitory concentration ([8]; triplicate 2): 512 µM; Minimum inhibitory concentration ([8]; triplicate 3): 512 µM; Minimum inhibitory concentration ([9]; CLSI M7-A10, triplicate 1): 8 µM; Minimum inhibitory concentration, Average [9]: 8.0 µM; Minimum inhibitory concentration ([9]; triplicate 2): 8 µM; Minimum inhibitory concentration ([9]; triplicate 3): 8 µM; Minimum inhibitory concentration [10, 11]: 128 µM; Minimum inhibitory concentration, Average [10]: 128.0 µM; Minimum inhibitory concentration ([10]; triplicate 2): 128 µM; Minimum inhibitory concentration ([10]; triplicate 3): 128 µM |
| GFKDLLKGAAKALVKTVLF [Asc-8, Ascaphin 8, reference compound] | 2 | 2.0 | 2 | 2 | 4 | 4.0 | 4 | 4 | 4 | 4.0 | 4 | 4 | 2 | 2.0 | 2 | 2 | 2 | 2.0 | 2 | 2 | Minimum inhibitory concentration ([6]; CLSI M7-A10, triplicate 1): 2 µM; Minimum inhibitory concentration, Average [6]: 3.3 µM; Minimum inhibitory concentration ([6]; triplicate 2): 4 µM; Minimum inhibitory concentration ([6]; triplicate 3): 4 µM; Minimum inhibitory concentration ([7]; CLSI M7-A10, triplicate 1): 2 µM; Minimum inhibitory concentration, Average [7]: 2.0 µM; Minimum inhibitory concentration ([7]; triplicate 2): 2 µM; Minimum inhibitory concentration ([7]; triplicate 3): 2 µM; Minimum inhibitory concentration ([8]; CLSI M7-A10, triplicate 1): 4 µM; Minimum inhibitory concentration, Average [8]: 4.0 µM; Minimum inhibitory concentration ([8]; triplicate 2): 4 µM; Minimum inhibitory concentration ([8]; triplicate 3): 4 µM; Minimum inhibitory concentration ([9]; CLSI M7-A10, triplicate 1): 1 µM; Minimum inhibitory concentration, Average [9]: 1.0 µM; Minimum inhibitory concentration ([9]; triplicate 2): 1 µM; Minimum inhibitory concentration ([9]; triplicate 3): 1 µM; Minimum inhibitory concentration [10, 11]: 8 µM; Minimum inhibitory concentration, Average [10]: 8.0 µM; Minimum inhibitory concentration ([10]; triplicate 2): 8 µM; Minimum inhibitory concentration ([10]; triplicate 3): 8 µM |
| GFKLGRKLVKVFKWII [Gr01] | 1 | 1.0 | 1 | 1 | 1 | 1.0 | 1 | 1 | 1 | 1.0 | 1 | 1 | 0.5 | 0.8 | 1 | 1 | 0.5 | 0.5 | 0.5 | 0.5 | Minimum inhibitory concentration ([6]; CLSI M7-A10, triplicate 1): 0.5 µM; Minimum inhibitory concentration, Average [6]: 0.5 µM; Minimum inhibitory concentration ([6]; triplicate 2): 0.5 µM; Minimum inhibitory concentration ([6]; triplicate 3): 0.5 µM; Minimum inhibitory concentration ([7]; CLSI M7-A10, triplicate 1): 1 µM; Minimum inhibitory concentration, Average [7]: 1.0 µM; Minimum inhibitory concentration ([7]; triplicate 2): 1 µM; Minimum inhibitory concentration ([7]; triplicate 3): 1 µM; Minimum inhibitory concentration ([8]; CLSI M7-A10, triplicate 1): 2 µM; Minimum inhibitory concentration, Average [8]: 3.3 µM; Minimum inhibitory concentration ([8]; triplicate 2): 4 µM; Minimum inhibitory concentration ([8]; triplicate 3): 4 µM; Minimum inhibitory concentration ([9]; CLSI M7-A10, triplicate 1): 1 µM; Minimum inhibitory concentration, Average [9]: 1.0 µM; Minimum inhibitory concentration ([9]; triplicate 2): 1 µM; Minimum inhibitory concentration ([9]; triplicate 3): 1 µM; Minimum inhibitory concentration [10, 11]: 1 µM; Minimum inhibitory concentration, Average [10]: 1.0 µM; Minimum inhibitory concentration ([10]; triplicate 2): 1 µM; Minimum inhibitory concentration ([10]; triplicate 3): 1 µM |
| GKILKYLLYLLRKYANLIIR [Tc02] | 16 | 16.0 | 16 | 16 | 16 | 13.3 | 16 | 8 | 1 | 1.0 | 1 | 1 | 8 | 8.0 | 8 | 8 | 8 | 10.7 | 8 | 16 | Minimum inhibitory concentration ([6]; CLSI M7-A10, triplicate 1): 16 µM; Minimum inhibitory concentration, Average [6]: 16.0 µM; Minimum inhibitory concentration ([6]; triplicate 2): 16 µM; Minimum inhibitory concentration ([6]; triplicate 3): 16 µM; Minimum inhibitory concentration ([7]; CLSI M7-A10, triplicate 1): 4 µM; Minimum inhibitory concentration, Average [7]: 4.0 µM; Minimum inhibitory concentration ([7]; triplicate 2): 4 µM; Minimum inhibitory concentration ([7]; triplicate 3): 4 µM; Minimum inhibitory concentration ([8]; CLSI M7-A10, triplicate 1): 16 µM; Minimum inhibitory concentration, Average [8]: 16.0 µM; Minimum inhibitory concentration ([8]; triplicate 2): 16 µM; Minimum inhibitory concentration ([8]; triplicate 3): 16 µM; Minimum inhibitory concentration ([9]; CLSI M7-A10, triplicate 1): 4 µM; Minimum inhibitory concentration, Average [9]: 4.0 µM; Minimum inhibitory concentration ([9]; triplicate 2): 4 µM; Minimum inhibitory concentration ([9]; triplicate 3): 4 µM; Minimum inhibitory concentration [10, 11]: 1 µM; Minimum inhibitory concentration, Average [10]: 1.0 µM; Minimum inhibitory concentration ([10]; triplicate 2): 1 µM; Minimum inhibitory concentration ([10]; triplicate 3): 1 µM |

Source: publication PMC5775428, “Towards an experimental classification system for membrane active peptides” (Scientific Reports, 2018)
